Converted amounts (≈) assume the structure as drawn.
What was measured:
[1] = target: T1, PBP3 from Pseudomonas aeruginosa (PAO1) (Pseudomonas aeruginosa, UniProt G3XD46); assay: Bocillin-FL fluorescence polarization competition binding, P. aeruginosa PBP3; conditions: Binding affinity to P. aeruginosa PBP3; fluorescence polarization competition binding assay using Bocillin-FL; read-out: P. aeruginosa PBP3 Potency
T1 construct: made in house
How it was run: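 Purified PBP was preincubated with inhibitor (E. coli PBP3 1.5 μM, 30 min; P. aeruginosa PBP3 0.75 μM, A. baumannii PBP3 0.2 μM and PBP1a 1 μM, 15 min), then Bocillin-FL (0.1 μM; 0.05 μM for PBP1a) added and FP read up to 60 min. EC50 = 50% loss of bound probe.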

E. coli ATCC 25922 = assay: microbe, parasite or virus in culture; format: cell-based; conditions: Escherichia coli, ATCC25922, read-out: MIC E. coli 25922
E. coli 901C = assay: microbe, parasite or virus in culture; format: cell-based; conditions: Escherichia coli, read-out: MIC E. coli 901C
E. coli AG100A = assay: Broth microdilution MIC in CAMHB; format: cell-based; conditions: Escherichia coli, read-out: MIC E. coli AG100A
K. pneumoniae 848844 = assay: microbe, parasite or virus in culture; format: cell-based; conditions: Klebsiella pneumoniae, 848844, read-out: MIC K. pneumoniae 848844
K. pneumoniae UMM = assay: microbe, parasite or virus in culture; format: cell-based; conditions: Klebsiella pneumoniae, read-out: MIC K. pneumoniae UMM
K. pneumoniae SI-117 = assay: microbe, parasite or virus in culture; format: cell-based; conditions: Klebsiella pneumoniae, SI117, read-out: MIC K. pneumoniae SI-117
P. aeruginosa ATCC 27853 = assay: microbe, parasite or virus in culture; format: cell-based; conditions: Pseudomonas aeruginosa, ATCC27853, read-out: MIC P. aeruginosa ATCC 27853
A. baumannii ATCC 19606 = assay: microbe, parasite or virus in culture; format: cell-based; conditions: Acinetobacter baumannii, ATCC19606, read-out: MIC, A. baumannii ATCC 19606
P. aeruginosa ATCC 35151 = assay: microbe, parasite or virus in culture; format: cell-based; conditions: Pseudomonas aeruginosa, ATCC35151, read-out: MIC P. aeruginosa ATCC 35151
[2] = test system: N. gonorrhoeae ATCC 49226; assay: Liquid broth MIC in Fastidious broth; conditions: Neisseria gonorrhoeae, ATCC49226, read-out: Minimum Inhibitory Concentration (MIC), N. gonorrhoeae ATCC 49226
N. gonorrhoeae FA1090 = assay: Liquid broth MIC in Fastidious broth; conditions: Neisseria gonorrhoeae, FA1090, read-out: Minimum Inhibitory Concentration (MIC), N. gonorrhoeae FA 1090
N. gonorrhoeae WHO L = assay: Liquid broth MIC in Fastidious broth; conditions: Neisseria gonorrhoeae, read-out: Minimum Inhibitory Concentration (MIC), N. gonorrhoeae WHO L
N. gonorrhoeae WHO K = assay: Liquid broth MIC in Fastidious broth; conditions: Neisseria gonorrhoeae, read-out: Minimum Inhibitory Concentration (MIC), N. gonorrhoeae WHO K
Method: (§1) Liquid broth-based assays were used for antibacterial testing of PBP inhibitors in Neisseria gonorrhoeae. Briefly, cryo-preserved bacterial cultures of clinical strains were streaked for isolation on Chocolate Agar (72 g/L (2×) GC Agar Base (BD #228950) and 2% (2×) Hemoglobin was autoclaved at 121° C. for 20 minutes to sterilize. Once cooled to ˜50° C. the 2×GC Agar Base and 2× Hemoglobin solutions are combined and 1% IsoVitaleX Enrichment (BD #211876) was added to the solution). Strains were incubated at 36° C. and 5% CO2 to allow growth of colonies, 24 hours before inoculum preparation. 2-fold serial dilutions of test compounds were conducted in a 96 well plate with a final volume of 75 μL per well at 2-fold the final desired concentration in Fastidious broth (Remel #R07664). For preparation of assay inoculum, a direct suspension was prepared by aseptically swabbing 10-15 colonies from agar plates into culture tubes containing 2 mL of fresh sterile saline. After the dilution plates were set up, direct suspensions were then diluted in a cuvette containing sterile saline and the optical density was measured at 600 nm. Inocula were diluted such that 75 μL of this culture in Fastidious broth results in a starting bacterial concentration of 5×10^5 CFU/mL when added to the dilution plates. The plates were incubated for ˜24 hours at 36° C. and 5% CO2.

N. gonorrhoeae WHO Q = assay: Liquid broth MIC in Fastidious broth; conditions: Neisseria gonorrhoeae, read-out: Minimum Inhibitory Concentration (MIC), N. gonorrhoeae WHO Q
Method: as §1

N. gonorrhoeae CDC-0197 = assay: Liquid broth MIC in Fastidious broth; conditions: Neisseria gonorrhoeae, CDC0197, read-out: Minimum Inhibitory Concentration (MIC), N. gonorrhoeae CDC-0197

T1 sequence (G3XD46 whole entry): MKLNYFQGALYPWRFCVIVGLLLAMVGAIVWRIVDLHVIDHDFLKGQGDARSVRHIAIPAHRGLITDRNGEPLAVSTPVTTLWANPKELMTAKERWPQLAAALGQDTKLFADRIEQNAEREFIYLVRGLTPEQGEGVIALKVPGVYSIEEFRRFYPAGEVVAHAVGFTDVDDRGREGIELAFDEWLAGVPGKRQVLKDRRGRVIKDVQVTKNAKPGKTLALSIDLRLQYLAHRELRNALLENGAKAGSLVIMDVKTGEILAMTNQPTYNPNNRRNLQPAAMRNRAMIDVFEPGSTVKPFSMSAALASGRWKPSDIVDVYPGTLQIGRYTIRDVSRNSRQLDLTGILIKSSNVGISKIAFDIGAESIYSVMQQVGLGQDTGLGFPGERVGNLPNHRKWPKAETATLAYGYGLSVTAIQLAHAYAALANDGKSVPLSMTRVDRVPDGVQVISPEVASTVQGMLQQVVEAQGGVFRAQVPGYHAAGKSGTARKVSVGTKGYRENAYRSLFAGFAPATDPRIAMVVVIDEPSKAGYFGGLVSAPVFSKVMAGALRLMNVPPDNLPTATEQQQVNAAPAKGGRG

Row | Structure (SMILES) | IC50 [1] [µM] | MIC (E. coli ATCC 25922) [µg/mL] | MIC (E. coli 901C) [µg/mL] | MIC (E. coli AG100A) [µg/mL] | MIC (K. pneumoniae 848844) [µg/mL] | MIC (K. pneumoniae UMM) [µg/mL] | MIC (K. pneumoniae SI-117) [µg/mL] | MIC (P. aeruginosa ATCC 27853) [µg/mL] | MIC (A. baumannii ATCC 19606) [µg/mL] | MIC (P. aeruginosa ATCC 35151) [µg/mL] | MIC [2] [µg/mL] | MIC (N. gonorrhoeae FA1090) [µg/mL] | MIC (N. gonorrhoeae WHO L) [µg/mL] | MIC (N. gonorrhoeae WHO K) [µg/mL] | MIC (N. gonorrhoeae WHO Q) [µg/mL] | MIC (N. gonorrhoeae CDC-0197) [µg/mL]
1 | CN1CCCN(C(=O)NC(C(=O)N[C@H]2Cc3cccc(C(=O)O)c3OB2O)c2ccc(P(=O)(O)O)cc2)C1=O (stereo partly drawn) [Example 38, (3R)-2-hydroxy-3-(2-(3-methyl-2-oxohexahydropyrimidine-1-carboxamido)-2-(4-phosphonophenyl)acetamido)-3,4-dihydro-2H-benzo[e][1,2]oxaborinine-8-carboxylic acid] | < 10 | > 128 | 2 to 4 (≈ 3.57 to 7.14 µM) | 32 to 64 (≈ 57.1 to 114 µM) | > 128 | > 128 | > 128 | > 128 | > 128 | 2 to 4 (≈ 3.57 to 7.14 µM) | 1 to 2 (≈ 1.78 to 3.57 µM) | < 1 | 16 to 32 (≈ 28.6 to 57.1 µM) | 4 to 8 (≈ 7.14 to 14.3 µM) | 4 to 8 (≈ 7.14 to 14.3 µM) | 1 to 2 (≈ 1.78 to 3.57 µM)
2 | O=C(O)c1cccc2c1OB(O)[C@@H](NC(=O)[C@@H](NC(=O)N1CCNC1=O)c1ccc(P(=O)(O)O)cc1)C2 [Example 39, (R)-2-hydroxy-3-((S)-2-(2-oxoimidazolidine-1-carboxamido)-2-(4-phosphonophenyl)acetamido)-3,4-dihydro-2H-benzo[e][1,2]oxaborinine-8-carboxylic acid] | 10 to 50 | > 128 | 2 to 4 (≈ 3.76 to 7.52 µM) | > 128 | > 128 | > 128 | > 128 | > 128 | > 128 | 2 to 4 (≈ 3.76 to 7.52 µM) | 1 to 2 (≈ 1.88 to 3.76 µM) | < 1 | 16 to 32 (≈ 30.1 to 60.1 µM) | 16 to 32 (≈ 30.1 to 60.1 µM) | 4 to 8 (≈ 7.52 to 15 µM) | 1 to 2 (≈ 1.88 to 3.76 µM)
3 | O=C(O)c1cccc2c1OB(O)[C@@H](NC(=O)[C@H](NC(=O)N1CCNC1=O)c1ccc(P(=O)(O)O)cc1)C2 [Example 40, (R)-2-hydroxy-3-((R)-2-(2-oxoimidazolidine-1-carboxamido)-2-(4-phosphonophenyl)acetamido)-3,4-dihydro-2H-benzo[e][1,2]oxaborinine-8-carboxylic acid] | < 10 | 32 to 64 (≈ 60.1 to 120 µM) | < 1 | 8 to 16 (≈ 15 to 30.1 µM) | > 128 | 32 to 64 (≈ 60.1 to 120 µM) | > 128 | 32 to 64 (≈ 60.1 to 120 µM) | 32 to 64 (≈ 60.1 to 120 µM) | < 1 | < 1 | < 1 | 1 to 2 (≈ 1.88 to 3.76 µM) | 1 to 2 (≈ 1.88 to 3.76 µM) | < 1 | < 1
4 | CN1CCN(C(=O)NC(C(=O)N[C@H]2Cc3cccc(C(=O)O)c3OB2O)c2ccc(P(=O)(O)O)cc2)C1=O (stereo partly drawn) [Example 41, (3R)-2-hydroxy-3-(2-(3-methyl-2-oxoimidazolidine-1-carboxamido)-2-(4-phosphonophenyl)acetamido)-3,4-dihydro-2H-benzo[e][1,2]oxaborinine-8-carboxylic acid] | < 10 | 32 to 64 (≈ 58.6 to 117 µM) | < 1 | 8 to 16 (≈ 14.6 to 29.3 µM) | > 128 | 32 to 64 (≈ 58.6 to 117 µM) | > 128 | > 128 | 32 to 64 (≈ 58.6 to 117 µM) | < 1 | < 1 | < 1 | 1 to 2 (≈ 1.83 to 3.66 µM) | < 1 | < 1 | < 1
5 | CCN1CCN(C(=O)NC(C(=O)N[C@H]2Cc3cccc(C(=O)O)c3OB2O)c2ccc(P(=O)(O)O)cc2)C1=O (stereo partly drawn) [Example 42, (3R)-3-(2-(3-ethyl-2-oxoimidazolidine-1-carboxamido)-2-(4-phosphonophenyl)acetamido)-2-hydroxy-3,4-dihydro-2H-benzo[e][1,2]oxaborinine-8-carboxylic acid] | < 10 | 32 to 64 (≈ 57.1 to 114 µM) | < 1 | 8 to 16 (≈ 14.3 to 28.6 µM) | > 128 | 32 to 64 (≈ 57.1 to 114 µM) | > 128 | > 128 | 32 to 64 (≈ 57.1 to 114 µM) | < 1 | < 1 | < 1 | 1 to 2 (≈ 1.78 to 3.57 µM) | 1 to 2 (≈ 1.78 to 3.57 µM) | < 1 | < 1
6 | CS(=O)(=O)N1CCC[C@H]1C(=O)N[C@H](C(=O)N[C@H]1Cc2cccc(C(=O)O)c2OB1O)c1ccc(P(=O)(O)O)cc1 [Example 43, (R)-2-hydroxy-3-((S)-2-((S)-1-(methylsulfonyl)pyrrolidine-2-carboxamido)-2-(4-phosphonophenyl)acetamido)-3,4-dihydro-2H-benzo[e][1,2]oxaborinine-8-carboxylic acid] | 50 to 250 | > 128 | 8 to 16 (≈ 13.4 to 26.9 µM) | > 128 | > 128 | > 128 | > 128 | > 128 | > 128 | 8 to 16 (≈ 13.4 to 26.9 µM) | 4 to 8 (≈ 6.72 to 13.4 µM) | 1 to 2 (≈ 1.68 to 3.36 µM) | 16 to 32 (≈ 26.9 to 53.8 µM) | 16 to 32 (≈ 26.9 to 53.8 µM) | 4 to 8 (≈ 6.72 to 13.4 µM) | 1 to 2 (≈ 1.68 to 3.36 µM)
7 | CS(=O)(=O)N1CCC[C@H]1C(=O)N[C@@H](C(=O)N[C@H]1Cc2cccc(C(=O)O)c2OB1O)c1ccc(P(=O)(O)O)cc1 [Example 44, (R)-2-hydroxy-3-((R)-2-((S)-1-(methylsulfonyl)pyrrolidine-2-carboxamido)-2-(4-phosphonophenyl)acetamido)-3,4-dihydro-2H-benzo[e][1,2]oxaborinine-8-carboxylic acid] | < 10 | > 128 | 2 to 4 (≈ 3.36 to 6.72 µM) | 32 to 64 (≈ 53.8 to 108 µM) | > 128 | > 128 | > 128 | > 128 | > 128 | 2 to 4 (≈ 3.36 to 6.72 µM) | 1 to 2 (≈ 1.68 to 3.36 µM) | < 1 | 16 to 32 (≈ 26.9 to 53.8 µM) | 4 to 8 (≈ 6.72 to 13.4 µM) | 1 to 2 (≈ 1.68 to 3.36 µM) | 1 to 2 (≈ 1.68 to 3.36 µM)
